From patent US10231939B2, “Hydroxytyrosol and oleuropein compositions for induction of DNA damage, cell death and LSD1 inhibition” (priority 2012, dated 2019)

Assays:
Assay in all cases: Cell proliferation (Cell Titer-Blue Assay)
Type in all cases: cell-based, human
[1] = system: Hep G2 cells; details: for EC50: Homo sapiens, HepG2
Procedure: (§1) Human cutaneous T cell lymphoma MyLa cells expressing CD4^+ (ECACC No. 95051032) and CD8^+ (ECACC No. 95051033) were obtained from the European Culture Collection of Cell Cultures (ECACC; CAMR, Salisbury, UK) and maintained in complete-RPMI 1640 medium supplemented with 2 mM glutamine (GIBCO-Invitrogen), 10% (v/v) human AB serum (Lonza, Basel, Switzerland) and 100 u/mL IL-2 (Sigma-Aldrich, USA) or 100 u/mL IL-2 (Sigma-Aldrich, USA) with 100 u/mL IL-4 (R&D Systems, MN, USA) respectively. Cells were cultured in suspension in a humidified atmosphere of 5% (v/v) CO2 at 37° C. and were maintained in exponential growth phase. For maintenance, cells were passaged three times per week and seeded at ratios 1:2. Liver hepatocellular carcinoma Hep G2 cells (ATCC No. […]) were maintained in RPMI-1640 supplemented with 10% fetal bovine serum (FBS), and were cultured in 75 cm^2 T-flask and maintained at 37° C. in 5% CO2 humidified incubator. Cell proliferation was determined using the Cell Titer-Blue Assay kit (Promega, Madison, Wis., USA). Cells were seeded at 10,000 cells per well in black flat bottom 96-well plates (Nalge Nunc, Penfield, N.Y., USA) and treated with serial doses of hydroxytyrosol (0-3200 μM) and oleuropein (0-12800 μM) for 24, 48 and 120 hours at 37° C., 5% (v/v) CO2. Following incubation with the test samples, Cell-Titer Blue reagent (20 μl per 100 μL) was added to each well and mixed gently for 5 sec prior to 4 hr incubation at 37° C. in a humidified atmosphere of 5% CO2. Fluorescence intensity (λex=550 nm and λem=615 nm) was determined using a Perkin Elmer Victor3 multilabel microplate counter (PerkinElmer, Waltham, Mass., USA). Data were expressed as % relative cell viability compared to untreated cells after correction of subtracting the media control fluorescence reading.

[2] = system: MyLa CD4+ cells; details: for EC50: Homo sapiens
Procedure: as §1

[3] = system: MyLa CD8+ cells; details: for EC50: Homo sapiens
Procedure: as §1

[4] = system: U937 cells; details: for EC50: Homo sapiens, U-937
Excerpt: (§2) Human chronic myelogenous leukemia K562 cells (ATCC No. CCL-243), human large B-lymphocyte non-Hodgkin's lymphoma LCL cells, human leukemic monocyte lymphoma U937 cells (ATCC No. CRL-1593.2), human prostate adenocarcinoma PC3 (ATCC No. CRL-1435) and human gastric carcinoma SNU-16 cells (ATCC No. CRL-5974) were maintained in complete-[…] Park Memorial Institute (RPMI) 1640 medium supplemented with 20 mmol/L HEPES (pH 7.4; GIBCO-Invitrogen, Carlsbad, Calif., USA), 10% (v/v) fetal bovine serum (FBS), 2 mmol/L L-glutamine (GIBCO-Invitrogen), and 80 units gentamicin (GIBCO-Invitrogen). Cells were cultured in suspension in a humidified atmosphere of 5% (v/v) CO2 at 37° C. and were maintained in exponential growth phase. For maintenance, cells were passaged twice per week and seeded at ratios 1:10. Cell proliferation was determined using the Cell Titer-Blue Assay kit (Promega, Madison, Wis., USA). Cells were seeded at 10,000 cells per well in black flat bottom 96-well plates (Nalge Nunc, Penfield, N.Y., USA) and treated with serial doses of hydroxytyrosol (0-3200 μM) and oleuropein (0-12800 μM) for 24, 48 and 120 hours at 37° C., 5% (v/v) CO2. Following incubation with the test samples, Cell-Titer Blue reagent (20 μl per 100 μL) was added to each well and mixed gently for 5 sec prior to 4 hr incubation at 37° C. in a humidified atmosphere of 5% CO2. Fluorescence intensity (λex=550 nm and λem=615 nm) was determined using a Perkin Elmer Victor3 multilabel microplate counter (PerkinElmer, Waltham, Mass., USA). Data were expressed as % relative cell viability compared to untreated cells after correction of subtracting the media control fluorescence reading.

[5] = system: K562 cells; details: for EC50: Homo sapiens
Excerpt: as §2

[6] = system: PC3 cells; details: for EC50: Homo sapiens, PC-3
Excerpt: as §2

[7] = system: HL-60 cells; details: for EC50: Homo sapiens
Procedure: Human acute myeloid leukemic HL-60 cells (ATCC No. CCL-240) obtained from the ATCC were maintained in Dulbecco's modified Eagle's medium (DMEM, Gibco®, Invitrogen, Carlsbad, USA) supplemented with 20% fetal bovine serum (FBS, In Vitro Technologies, Victoria, Australia), antibody/antimycotic containing 100 U/mL Penicillin, 100 μg/mL Streptomycin, 0.25 μg/mL Amphotericin B (Invitrogen, Carlsbad, Calif., USA) and 1× GlutaMAX (Gibco, Invitrogen). Cells were cultured in suspension in a humidified atmosphere of 5% (v/v) CO2 at 37° C. and were maintained in exponential growth phase. For maintenance, cells were passaged twice per week and seeded at ratios 1:10. Cell proliferation was determined using the Cell Titer-Blue Assay kit (Promega, Madison, Wis., USA). Cells were seeded at 10,000 cells per well in black flat bottom 96-well plates (Nalge Nunc, Penfield, N.Y., USA) and treated with serial doses of hydroxytyrosol (0-3200 μM) and oleuropein (0-12800 μM) for 24, 48 and 120 hours at 37° C., 5% (v/v) CO2. Following incubation with the test samples, Cell-Titer Blue reagent (20 μl per 100 μL) was added to each well and mixed gently for 5 sec prior to 4 hr incubation at 37° C. in a humidified atmosphere of 5% CO2. Fluorescence intensity (λex=550 nm and λem=615 nm) was determined using a Perkin Elmer Victor3 multilabel microplate counter (PerkinElmer, Waltham, Mass., USA). Data were expressed as % relative cell viability compared to untreated cells after correction of subtracting the media control fluorescence reading.

Structure (SMILES) | EC10 (concentration required to reduce the cell viability of the population to 10%) ([1]; Hep-G2, 120 hr) | EC50 ([1]; Hep-G2, 24 hr) | EC50 ([1]; Hep-G2, 48 hr) | EC50 ([1]; Hep-G2, 120 hr) | EC10 (concentration required to reduce the cell viability of the population to 10%) ([2]; 120 hr) | EC50 ([2]; 24 hr) | EC50 ([2]; 48 hr) | EC50 ([2]; 120 hr) | EC10 (concentration required to reduce the cell viability of the population to 10%) ([3]; 120 hr) | EC50 ([3]; 24 hr) | EC50 ([3]; 48 hr) | EC50 ([3]; 120 hr) | EC50 ([4]; U937, 24 hr) | EC50 ([4]; U937, 48 hr) | EC50 ([4]; U937, 120 hr) | EC10 (concentration required to reduce the cell viability of the population to 10%) ([4]; U937, 120 hr) | EC50 ([5]; K562, 24 hr) | EC50 ([5]; K562, 48 hr) | EC50 ([5]; K562, 120 hr) | EC10 (concentration required to reduce the cell viability of the population to 10%) ([5]; K562, 120 hr) | further results
OCCc1ccc(O)c(O)c1 [HT, 4-(2-hydroxyethyl)-1,2-benzenediol] | 360 µM | 427 µM | 470 µM | 205 µM | 760 µM | 1010 µM | 870 µM | 400 µM | 650 µM | 460 µM | 450 µM | 230 µM | 563 µM | 500 µM | 250 µM | 370 µM | 150 µM | 150 µM | 91 µM | 176 µM | EC50 ([6]; PC3, 24 hr): 2120 µM; EC50 ([6]; PC3, 48 hr): 320 µM; EC50 ([6]; PC3, 120 hr): 215 µM; EC10 (concentration required to reduce the cell viability of the population to 10%) ([6]; PC3, 120 hr): 630 µM; EC10 (concentration required to reduce the cell viability of the population to 10%) ([7]; HL-60, 120 hr): 29 µM; EC50 ([7]; HL-60, 24 hr): 632 µM; EC50 ([7]; HL-60, 48 hr): 100 µM; EC50 ([7]; HL-60, 120 hr): 13 µM
C/C=C1/[C@H](O[C@@H]2O[C@H](CO)[C@@H](O)[C@H](O)[C@H]2O)OC=C(C(=O)OC)[C@H]1CC(=O)OCCc1ccc(O)c(O)c1 [OL, oleuropein] | 2600 µM | 703 µM | 2400 µM | 1300 µM | 4800 µM | 647 µM | 3800 µM | 3400 µM | 3020 µM | 647 µM | 3600 µM | 270 µM | 730 µM | 2800 µM | 1250 µM | 2600 µM | 337 µM | 950 µM | 585 µM | 756 µM | EC50 ([6]; PC3, 24 hr): 2290 µM; EC50 ([6]; PC3, 48 hr): 3800 µM; EC50 ([6]; PC3, 120 hr): 2500 µM; EC10 (concentration required to reduce the cell viability of the population to 10%) ([6]; PC3, 120 hr): 4600 µM; EC10 (concentration required to reduce the cell viability of the population to 10%) ([7]; HL-60, 120 hr): 230 µM; EC50 ([7]; HL-60, 24 hr): 717 µM; EC50 ([7]; HL-60, 48 hr): 900 µM; EC50 ([7]; HL-60, 120 hr): 100 µM
